From ChEMBL document CHEMBL1144064, “Biological evaluation of proanthocyanidin dimers and related polyphenols” (J Nat Prod, 1999)
In brackets after ≈: the same amount, converted by molar mass. Activity calls are given as the source filed them. The rule behind the calls is not given here.

Legend:
Salmonella paratyphi = assay: Antimicrobial activity against Salmonella paratyphi; assay type: functional, Salmonella enterica subsp. enterica serovar Paratyphi A; details: Salmonella enterica
[1] = Antioxidant activity assessed as superoxide radical anion scavenging activity; assay type: functional
Proteus vulgaris = assay: Antimicrobial activity against Proteus vulgaris; assay type: functional
[2] = Modulation of alternative complement pathway system assessed as hemoglobin release by spectrophotometry
Enterobacter cloacae = assay: Antimicrobial activity against Enterobacter cloacae; assay type: functional
Escherichia coli = assay: Antimicrobial activity against Escherichia coli; assay type: functional
[3] = Cytotoxicity against human MT4 cells by MTT assay; assay type: cell-based
Staphylococcus aureus = assay: Antimicrobial activity against Staphylococcus aureus; assay type: functional
[4] = Selectivity index, ratio of CC50 for human MT4 cells to IC50 for HIV infected in human MT4 cells; assay type: functional
[5] = system: Mycolicibacterium fortuitum; assay: Antimicrobial activity against Mycobacterium fortuitum; assay type: functional
[6] = Modulation of classical complement pathway system assessed as hemoglobin release by spectrophotometry
Pseudomonas aeruginosa = assay: Antimicrobial activity against Pseudomonas aeruginosa; assay type: functional
[7] = system: Human immunodeficiency virus; assay: Antiviral activity against HIV infected in human MT4 cells assessed as inhibition of virus-induced cytopathic effect by MTT assay; assay type: functional, organism-based; details: Human immunodeficiency virus 1, MT4
Candida albicans = assay: Antimicrobial activity against Candida albicans; assay type: functional
Simplexvirus = assay: Antiviral activity against HSV up to 200 ug/mL by extracellular virucidal assay; assay type: functional, organism-based
Klebsiella pneumoniae = assay: Antimicrobial activity against Klebsiella pneumoniae; assay type: functional
Streptococcus pyogenes = assay: Antimicrobial activity against Streptococcus pyogenes; assay type: functional
Bacillus cereus = assay: Antimicrobial activity against Bacillus cereus; assay type: functional

In the case of `Oc1cc(O)c2c(c1)O[C@@]1(c3ccc(O)c(O)c3)Oc3cc(O)c4c(c3[C@@H]2[C@H]1O)O[C@H](c1ccc(O)c(O)c1)[C@@H](O)C4` [PROANTHOCYANIDIN A1], the MBC (Salmonella paratyphi) is reported as > 100 µg/mL, the MIC (Salmonella paratyphi) is reported as > 100 µg/mL and the IC50 [1] is reported as 14.7 µM. The MIC (Proteus vulgaris) was 50 µg/mL (≈ 86.7 µM), the IC50 [2] was 105 µM and the MBC (Enterobacter cloacae) was > 100 µg/mL. The MIC (Enterobacter cloacae) was > 100 µg/mL, the MBC (Escherichia coli) was > 100 µg/mL and the MIC (Escherichia coli) was > 100 µg/mL. For the same compound, the CC50 [3] was 144 µg/mL (≈ 250 µM), the MBC (Staphylococcus aureus) was > 100 µg/mL and the MIC (Staphylococcus aureus) was > 100 µg/mL. The “Ratio CC50/IC50” value [4] was 10, the MBC [5] was > 100 µg/mL and the MIC [5] was > 100 µg/mL. For the same compound, the IC50 [6] was 57.1 µM, the MBC (Pseudomonas aeruginosa) was > 100 µg/mL and the MIC (Pseudomonas aeruginosa) was > 100 µg/mL. The IC50 [7] was 14 µg/mL (≈ 24.3 µM), the MBC (Candida albicans) was > 100 µg/mL and the MIC (Candida albicans) was > 100 µg/mL. The Activity (Simplexvirus) was “inactive”.

With `Oc1cc(O)c2c(c1)O[C@H](c1cc(O)c(O)c(O)c1)[C@H](O)C2` [EPIGALLOCATECHIN] the MBC (Salmonella paratyphi) was > 100 µg/mL, the MIC (Salmonella paratyphi) was > 100 µg/mL and the IC50 [1] was 3.4 µM. It also gave an MBC (Proteus vulgaris) of 100 µg/mL (≈ 327 µM), an MIC (Proteus vulgaris) of 50 µg/mL (≈ 163 µM) and an IC50 [2] of 179 µM. For the same compound, the MBC (Enterobacter cloacae) was > 100 µg/mL, the MIC (Enterobacter cloacae) was > 100 µg/mL and the MBC (Escherichia coli) was > 100 µg/mL. For the same compound, the MIC (Escherichia coli) was > 100 µg/mL, the CC50 [3] was 16.1 µg/mL (≈ 52.6 µM) and the MBC (Staphylococcus aureus) was > 100 µg/mL. For the same compound, the MIC (Staphylococcus aureus) was > 100 µg/mL, the MBC (Klebsiella pneumoniae) was 100 µg/mL (≈ 327 µM) and the MIC (Klebsiella pneumoniae) was 100 µg/mL (≈ 327 µM). The “Ratio CC50/IC50” value [4] was <1, the MBC [5] was > 100 µg/mL and the MIC [5] was > 100 µg/mL. For the same compound, the IC50 [6] was 19.6 µM, the MBC (Pseudomonas aeruginosa) was > 100 µg/mL and the MIC (Pseudomonas aeruginosa) was > 100 µg/mL. For the same compound, the IC50 [7] was > 16.1 µg/mL, the MBC (Candida albicans) was > 100 µg/mL and the MIC (Candida albicans) was > 100 µg/mL. The Activity (Simplexvirus) was “inactive”.

In the case of `Oc1cc(O)c2c(c1)O[C@@]1(c3ccc(O)c(O)c3)Oc3cc(O)c4c(c3[C@@H]2[C@H]1O)O[C@H](c1ccc(O)c(O)c1)[C@H](O)C4` [PROANTHOCYANIDIN A2], the MBC (Salmonella paratyphi) is reported as > 100 µg/mL, the MIC (Salmonella paratyphi) is reported as > 100 µg/mL and the IC50 [1] is reported as 17.8 µM. The IC50 [2] was 113 µM, the MBC (Enterobacter cloacae) was > 100 µg/mL and the MIC (Enterobacter cloacae) was > 100 µg/mL. The MBC (Escherichia coli) was > 100 µg/mL, the MIC (Escherichia coli) was > 100 µg/mL and the CC50 [3] was 138 µg/mL (≈ 239 µM). The MBC (Staphylococcus aureus) was > 100 µg/mL, the MIC (Staphylococcus aureus) was > 100 µg/mL and the “Ratio CC50/IC50” value [4] was 24. The MBC [5] was > 100 µg/mL, the MIC [5] was > 100 µg/mL and the IC50 [6] was 11.6 µM. The MBC (Pseudomonas aeruginosa) was > 100 µg/mL, the MIC (Pseudomonas aeruginosa) was > 100 µg/mL and the MBC (Streptococcus pyogenes) was 50 µg/mL (≈ 86.7 µM). For the same compound, the MIC (Streptococcus pyogenes) was 50 µg/mL (≈ 86.7 µM), the IC50 [7] was 5.8 µg/mL (≈ 10.1 µM) and the MBC (Candida albicans) was > 100 µg/mL. The MIC (Candida albicans) was > 100 µg/mL, the MIC (Bacillus cereus) was 100 µg/mL (≈ 173 µM) and the Activity (Simplexvirus) was “inactive”.

For `Oc1cc(O)c2c(c1)O[C@H](c1ccc(O)c(O)c1)[C@@H](O)[C@@H]2c1c(O)cc2c(c1O)C[C@H](O)[C@@H](c1ccc(O)c(O)c1)O2`, the MBC (Salmonella paratyphi) was > 100 µg/mL, the MIC (Salmonella paratyphi) was > 100 µg/mL and the IC50 [1] was 27.3 µM. The Activity [2] was “inactive”, the MBC (Enterobacter cloacae) was > 100 µg/mL and the MIC (Enterobacter cloacae) was > 100 µg/mL. The MBC (Escherichia coli) was > 100 µg/mL, the MIC (Escherichia coli) was > 100 µg/mL and the CC50 [3] was 141 µg/mL (≈ 244 µM). The MBC (Staphylococcus aureus) was > 100 µg/mL, the MIC (Staphylococcus aureus) was > 100 µg/mL and the “Ratio CC50/IC50” value [4] was 5. For the same compound, the MBC [5] was > 100 µg/mL, the MIC [5] was > 100 µg/mL and the IC50 [6] was 18.5 µM. The MBC (Pseudomonas aeruginosa) was > 100 µg/mL, the MIC (Pseudomonas aeruginosa) was > 100 µg/mL and the MBC (Streptococcus pyogenes) was 100 µg/mL (≈ 173 µM). For the same compound, the MIC (Streptococcus pyogenes) was 100 µg/mL (≈ 173 µM), the IC50 [7] was 29.9 µg/mL (≈ 51.7 µM) and the MBC (Candida albicans) was > 100 µg/mL. For the same compound, the MIC (Candida albicans) was > 100 µg/mL and the Activity (Simplexvirus) was “inactive”.

For `Oc1cc(O)c2c(c1)O[C@H](c1ccc(O)c(O)c1)[C@H](O)[C@H]2c1c(O)cc(O)c2c1O[C@H](c1ccc(O)c(O)c1)[C@H](O)C2` [PROCYANIDIN B2], the MBC (Salmonella paratyphi) was > 100 µg/mL, the MIC (Salmonella paratyphi) was > 100 µg/mL and the IC50 [1] was 10.5 µM. For the same compound, the Activity [2] was “inactive”, the MBC (Enterobacter cloacae) was > 100 µg/mL and the MIC (Enterobacter cloacae) was > 100 µg/mL. For the same compound, the MBC (Escherichia coli) was > 100 µg/mL, the MIC (Escherichia coli) was > 100 µg/mL and the CC50 [3] was 135 µg/mL (≈ 234 µM). For the same compound, the MBC (Staphylococcus aureus) was > 100 µg/mL, the MIC (Staphylococcus aureus) was > 100 µg/mL and the “Ratio CC50/IC50” value [4] was 8. For the same compound, the MBC [5] was > 100 µg/mL, the MIC [5] was > 100 µg/mL and the IC50 [6] was 58 µM. The MBC (Pseudomonas aeruginosa) was > 100 µg/mL, the MIC (Pseudomonas aeruginosa) was > 100 µg/mL and the MBC (Streptococcus pyogenes) was 100 µg/mL (≈ 173 µM). For the same compound, the MIC (Streptococcus pyogenes) was 100 µg/mL (≈ 173 µM), the IC50 [7] was 17.2 µg/mL (≈ 29.7 µM) and the MBC (Candida albicans) was > 100 µg/mL. The MIC (Candida albicans) was > 100 µg/mL and the Activity (Simplexvirus) was “inactive”.
